Test results: publication PMC10886162, “Synthesis of Novel Artemisinin, Ciprofloxacin, and Norfloxacin Hybrids with Potent Antiplasmodial Activity” (Antibiotics, 2024)

Legend:
[1] = test system: CQ-resistant P. falciparum strain FcB1; settings: cited from earlier work
[2] = test system: CQ-resistant P. falciparum FcB1 strain; assay: In vitro growth inhibition of P. falciparum FcB1 ([3H]-hypoxanthine incorporation); assay type: cell-based, Plasmodium falciparum; settings: for IC50: Plasmodium falciparum; for Selectivity Index (IC50 AB943/IC50 FcB1): ratio of cytotoxicity IC50 to antiplasmodial IC50 (FcB1)
Procedure: (§1) The chloroquine-resistant FcB1/Colombia and Dd2/Indochina strains of Plasmodium falciparum were obtained from the Protist Collection of the National Museum of Natural History, Paris, France (n° MNHN-CEU-2016-224-PfFCB1 and MNHN-CEU-2016-222-PfDD2). The parasites were maintained in vitro on human erythrocytes in RPMI 1640 medium supplemented by 8% (v/v) heat-inactivated human serum, at 37 °C, under an atmosphere of 5% CO2. The human red blood cells and serum were provided by the Établissement Français du Sang under the C-CPSL-UNT approval no. 13/EFS/126. The in vitro drug susceptibility assays were measured by [^3H]-hypoxanthine incorporation, as previously described. The drug stock solutions were prepared in DMSO. Briefly, the assays were performed in 96-well plates. The compounds were diluted in the culture medium (100 μL per well). The parasite cultures (100 μL, 2% parasitaemia, and 1% final hematocrit) were then added to each well and incubated for 24 h at 37 °C prior to the addition of 0.5 μCi of [^3H]- hypoxanthine (GE Healthcare, Paris, France, 1 to 5 Ci·mmol/mL) per well. After a further incubation of 24 h, the plates were frozen and thawed. The cell lysates were then collected onto fiberglass filters and counted in a liquid scintillation spectrometer. The growth inhibition for each drug concentration was determined through a comparison of the radioactivity incorporated in the treated culture with that in the control culture maintained on the same plate. The drugs were first evaluated for a range of fixed concentrations of 50, 5, 0.5, 0.05, and 0.005 μg/mL. […] The IC50 value was obtained from the drug concentration–response curve, and the results were expressed in μM or nM as the mean values ± standard deviations determined from several independent experiments. Artesunate (46) was used as an antimalarial drug control.

[3] = test system: CQ-resistant Dd2 strain of P. falciparum; assay: In vitro growth inhibition of P. falciparum Dd2 ([3H]-hypoxanthine incorporation); assay type: cell-based, Plasmodium falciparum; settings: for IC50: Plasmodium falciparum, CQ-resistant Dd2, mean +/− SD of at least three independent experiments; for Selectivity Index (IC50 AB943/IC50 Dd2): ratio of cytotoxicity IC50 to antiplasmodial IC50 (Dd2)
Procedure: as §1

[4] = test system: human primary fibroblasts AB943; assay: Cytotoxicity upon human primary fibroblasts AB943 (resazurin); assay type: cell-based; settings: Fibroblast, 72 h, mean +/− SD of at least three independent experiments
Procedure: A cellular cytotoxicity evaluation was performed upon human primary fibroblasts AB943, as previously described. The assays were realized in 96-well plates in DMEM + Glutamax without phenol red medium containing 25 mM HEPES, a pH of 7.3, and 10% of fetal calf serum under a 5% CO2 atmosphere, at 37 °C. After trypsin treatment, the AB943 cells were seeded at 2000 cells per well in 100 μL. After 24 h of incubation, drugs diluted in the culture medium were added (100 μL per well). The drug stock solutions were prepared in dimethyl sulfoxide (DMSO). The final DMSO concentration in the cultures remained below 1%. Control cultures were constituted of cultures treated with DMSO instead of the drug. The cytotoxicity assay was based on the conversion of a redo-sensitive dye (resazurin) to a fluorescent product via viable cells. After 72 h of incubation, the resazurin solution was added in each well at a final concentration of 45 μM. The fluorescence was measured at 530 nm excitation and 590 nm emission wavelengths after 4 h of incubation. The percentage of the inhibition of cell growth was calculated by comparing the fluorescence of cells maintained in the presence of the drug to that in the absence of the drug. The concentration causing 50% growth inhibition (IC50) was obtained from the drug concentration–response curve, and the results were expressed as the mean values ± standard deviations determined from several experiments.

[5] = test system: P. falciparum parasite strains (3D7, Dd2, and K1); design: method as in PMID 31290221; settings: range over 3D7, Dd2 and K1 strains; cited from earlier work
[6] = test system: 3D7 strain; design: method as in PMID 30023664; settings: cited from earlier work
[7] = test system: 3D7 P. falciparum strain; design: method as in PMID 32676153; settings: cited from earlier work
[8] = test system: W2 P. falciparum strain; design: method as in PMID 32676153; settings: cited from earlier work
[9] = test system: mammalian and bacterial systems; design: method as in PMID 32676153; settings: cited from earlier work
[10] = FCB1, CQ-resistant FcB1, mean +/− standard deviation of independent experiments (at least four in Tables 1-2, at least three in Tables 3-4)

Row | SMILES | IC50 [2, 10] | Selectivity Index (IC50 AB943/IC50 FcB1) [2] | IC50 [3] | Selectivity Index (IC50 AB943/IC50 Dd2) [3] | IC50 [4] | EC50 [6] | further results
1 | C[C@@H]1CC[C@H]2[C@@H](C)C(=O)O[C@@H]3O[C@@]4(C)CC[C@@H]1[C@]32OO4 [ART, artemisinin] | – | – | – | – | – | – | IC50 [1]: 55 ± 13.6 nM
2 | C[C@H]1[C@H](OC(=O)CCC(=O)O)O[C@@H]2O[C@@]3(C)CC[C@H]4[C@H](C)CC[C@@H]1[C@@]24OO3 [AS (46), artesunate, reference compound] | 18.5 nM | >7042 | 41.9 nM | >3104 | > 130000 nM | – | IC50 ([2]; FCB1, Table 5, single compound (hybrid or AS alone)): 4.5 nM; EC50 [5]: 5.2 to 14.4 nM
3 | CCN(CC)CCCC(C)Nc1ccnc2cc(Cl)ccc12 (stereo not drawn) [CQ, chloroquine] | – | – | – | – | – | 9.8 ± 2.8 nM | –
4 | C[C@@H]1CCC2[C@@H](C)[C@H](OC(=O)CCC(=O)N3CCN(c4cc5c(cc4F)c(=O)c(C(=O)N4CCN(c6ccnc7cc(Cl)ccc67)CC4)cn5C4CC4)CC3)O[C@@H]3O[C@@]4(C)CCC1[C@@]23OO4 (stereo partly drawn) [Compound 28, (3R,6R,9R,10S,12R,12aR)-3,6,9-trimethyldecahydro-12H-3,12-epoxy[1,2]dioxepino[4,3-i]isochromen-10-yl 4-(4-(3-(4-(7-chloroquinolin-4-yl)piperazine-1-carbonyl)-1-cyclopropyl-6-fluoro-4-oxo-1,4-dihydroquinolin-7-yl)piperazin-1-yl)-4-oxobutanoate] | 4.9 nM | 4046 | 12.4 nM | 1582 | 19600 nM | – | melting point: 157 to 158.2 °C
5 | CCn1cc(C(=O)N2CCN(c3ccnc4cc(Cl)ccc34)CC2)c(=O)c2cc(F)c(N3CCN(C(=O)CCC(=O)O[C@@H]4O[C@@H]5O[C@@]6(C)CCC7[C@H](C)CCC([C@H]4C)[C@]75OO6)CC3)cc21 (stereo partly drawn) [Compound 29, (3R,6R,9R,10S,12R,12aR)-3,6,9-trimethyldecahydro-12H-3,12-epoxy[1,2]dioxepino[4,3-i]isochromen-10-yl 4-(4-(3-(4-(7-chloroquinolin-4-yl)piperazine-1-carbonyl)-1-ethyl-6-fluoro-4-oxo-1,4-dihydroquinolin-7-yl)piperazin-1-yl)-4-oxobutanoate] | 5 nM | 6027 | 18.2 nM | 1658 | 30300 nM | – | melting point: 168.7 to 169.6 °C
6 | C[C@H]1[C@@H](O)O[C@@H]2O[C@@]3(C)CC[C@H]4[C@H](C)CC[C@@H]1[C@@]24OO3 [DHA, dihydroartemisinin] | – | – | – | – | – | 2.4 ± 0.4 nM | –
7 | CC1CCC2C(C)C(OC(=O)CCC(=O)OCCNc3ccc4ncnc(Nc5ccc(Cl)c(Cl)c5)c4c3)OC3OC4(C)CCC1C32OO4 (stereo not drawn) [hybrid 3] | – | – | – | – | – | 1.4 ± 0.4 nM | –
8 | CC1CCC2C(C)C(OC(=O)CCC(=O)OCCNc3ccnc4cc(Cl)ccc34)OC3OC4(C)CCC1C32OO4 (stereo not drawn) [hybrid 4] | – | – | – | – | – | – | EC50 [5]: 1.7 to 4.5 nM
9 | CCOC(=O)c1cn(C2CC2)c2cc(N3CCN(c4ccnc5cc(Cl)ccc45)CC3)c(F)cc2c1=O [hybrid 10] | – | – | – | – | – | – | IC50 [7]: 63.2 ± 1.2 nM; IC50 [8]: 25.5 ± 4.45 nM; toxicity to mammalian and bacterial systems [9]: nontoxic
